Measurements: patent US6365217B2, “N-[N-(3,3-dimethylbutyl)-L-α-aspartyl]-L-phenylalanine 1-methyl ester agglomerate” (The Nutra Sweet Company, priority 1999, dated 2002)
Residues, ends and D or L forms follow the SMILES beside them.

Assays:
[1] = Solubility in water, ethanol and organic solvents; type: physicochemical
[2] = relative to sucrose; cited from earlier work
[3] = under some pH conditions, compared with aspartame; cited from earlier work

solubility in ethanol [1]	solubility in water ([1]; water)	SMILES	solubility in organic solvents ([1]; compared with aspartame)	sweetening potency [2]	stability [3]
greater than 100 g/100 ml	about 1%	COC(=O)[C@H](Cc1ccccc1)NC(=O)[C@H](CC(=O)O)NCCC(C)(C)C [N-[N-(3,3-dimethylbutyl)-L-α-aspartyl]-L-phenylalanine 1-methyl ester]	much higher solubility in organic solvents than aspartame	about 8,000 times	higher stability than aspartame
less than 0.1%	–	COC(=O)[C@H](Cc1ccccc1)NC(=O)[C@@H](N)CC(=O)O [aspartame, reference compound] (H-Asp-Phe-OMe)	–	–	–
